ChEMBL document CHEMBL2169878 (J Med Chem, 2012)
Calls of active or inactive are those of the source. No cut-off for these calls is given here.

Experiments:
Salmonella typhimurium [1] = assay: Mutagenicity against Salmonella typhimurium TA98 assessed as revertants at 24 uM incubated for 90 mins followed by drug washout measured after 2 days relative to positive control; format: toxicity, organism-based; settings: salmonella enterica subsp. enterica serovar typhimurium, 1.5 h
Salmonella typhimurium [2] = assay: Mutagenicity against Salmonella typhimurium TA98 assessed as revertants at 40 uM incubated for 90 mins followed by drug washout measured after 2 days relative to positive control; format: toxicity, organism-based; settings: salmonella enterica subsp. enterica serovar typhimurium
Salmonella typhimurium [3] = assay: Mutagenicity against Salmonella typhimurium TA98 assessed as revertants at 80 uM incubated for 90 mins followed by drug washout measured after 2 days relative to positive control; format: toxicity, organism-based; settings: salmonella enterica subsp. enterica serovar typhimurium, 1.5 h
Salmonella typhimurium [4] = assay: Mutagenicity against Salmonella typhimurium TA98 assessed as revertants at 7 uM incubated for 90 mins followed by drug washout measured after 2 days relative to positive control; format: toxicity, organism-based; settings: salmonella enterica subsp. enterica serovar typhimurium
Salmonella typhimurium [5] = assay: Mutagenicity against Salmonella typhimurium TA98 assessed as revertants at 15 uM incubated for 90 mins followed by drug washout measured after 2 days relative to positive control; format: toxicity, organism-based; settings: salmonella enterica subsp. enterica serovar typhimurium
Salmonella typhimurium [6] = assay: Mutagenicity against Salmonella typhimurium TA98 assessed as revertants at 61 uM incubated for 90 mins followed by drug washout measured after 2 days relative to positive control; format: toxicity, organism-based; settings: salmonella enterica subsp. enterica serovar typhimurium, 1.5 h
Salmonella typhimurium [7] = assay: Mutagenicity against Salmonella typhimurium TA100 assessed as revertants at 24 uM incubated for 90 mins followed by drug washout measured after 2 days relative to positive control; format: toxicity, organism-based; settings: salmonella enterica subsp. enterica serovar typhimurium
Salmonella typhimurium [8] = assay: Mutagenicity against Salmonella typhimurium TA100 assessed as revertants at 61 uM incubated for 90 mins followed by drug washout measured after 2 days relative to positive control; format: toxicity, organism-based; settings: salmonella enterica subsp. enterica serovar typhimurium
Salmonella typhimurium [9] = assay: Mutagenicity against Salmonella typhimurium TA100 assessed as revertants at 40 uM incubated for 90 mins followed by drug washout measured after 2 days relative to positive control; format: toxicity, organism-based; settings: salmonella enterica subsp. enterica serovar typhimurium
Salmonella typhimurium [10] = assay: Mutagenicity against Salmonella typhimurium TA100 assessed as revertants at 80 uM incubated for 90 mins followed by drug washout measured after 2 days relative to positive control; format: toxicity, organism-based; settings: salmonella enterica subsp. enterica serovar typhimurium
Salmonella typhimurium [11] = assay: Mutagenicity against Salmonella typhimurium TA100 assessed as revertants at 7 uM incubated for 90 mins followed by drug washout measured after 2 days relative to positive control; format: toxicity, organism-based; settings: salmonella enterica subsp. enterica serovar typhimurium, 1.5 h
Salmonella typhimurium [12] = assay: Mutagenicity against Salmonella typhimurium TA100 assessed as revertants at 15 uM incubated for 90 mins followed by drug washout measured after 2 days relative to positive control; format: toxicity, organism-based; settings: salmonella enterica subsp. enterica serovar typhimurium
Plasmodium falciparum [13] = assay: Antiplasmodial activity against chloroquine-sensitive Plasmodium falciparum D10 infected in human RBC after 72 hrs by parasite lactate dehydrogenase assay; format: functional, organism-based; settings: D10, 72 h
Plasmodium falciparum [14] = assay: Antiplasmodial activity against chloroquine-resistant Plasmodium falciparum W2 infected in human RBC after 72 hrs by parasite lactate dehydrogenase assay; format: functional, organism-based; settings: W2, 72 h
Plasmodium falciparum [15] = assay: Antiplasmodial activity against chloroquine-sensitive Plasmodium falciparum NF54 infected in human erythrocytes assessed as inhibition of [3H]hypoxanthine incorporation incubated for 48 hrs prior to [3H]hypoxanthine addition measured after 48 hrs by liquid scintillation counting; format: functional, organism-based
Plasmodium falciparum [16] = assay: Antiplasmodial activity against chloroquine-resistant Plasmodium falciparum K1 infected in human erythrocytes assessed as inhibition of [3H]hypoxanthine incorporation incubated for 48 hrs prior to [3H]hypoxanthine addition measured after 48 hrs by liquid scintillation counting; format: functional, organism-based
Plasmodium berghei [17] = assay: Antimalarial activity against Plasmodium berghei ANKA expressing GFP infected in mouse assessed as reduction in parasitemia at 100 mg/kg, po administered 24 hrs post-infection measured 48 hrs post-dosing by flow cytometric analysis; format: functional; set-up: scale not given: the % may be the effect or the level left
Plasmodium berghei [18] = assay: Antimalarial activity against Plasmodium berghei ANKA expressing GFP infected in mouse assessed as reduction in parasitemia at 30 mg/kg, po administered 24 hrs post-infection measured 48 hrs post-dosing by flow cytometric analysis; format: functional; set-up: scale not given: the % may be the effect or the level left
Plasmodium berghei [19] = assay: Antimalarial activity against Plasmodium berghei ANKA expressing GFP infected in mouse assessed as mean survival days at 100 mg/kg, po administered 24 hrs post-infection (reference value: 6 to 7 days); format: functional
Plasmodium berghei [20] = assay: Antimalarial activity against Plasmodium berghei ANKA expressing GFP infected in mouse assessed as mean survival days at 30 mg/kg, po administered 24 hrs post-infection (reference value: 6 to 7 days); format: functional
Plasmodium berghei [21] = assay: Antimalarial activity against Plasmodium berghei ANKA expressing GFP infected in mouse assessed as cure from infection at 100 mg/kg, po administered 24 hrs post-infection measured on day 30; format: functional, organism-based; set-up: dose 100 mg/kg
Plasmodium berghei [22] = assay: Antimalarial activity against Plasmodium berghei ANKA expressing GFP infected in mouse assessed as cure from infection at 30 mg/kg, po administered 24 hrs post-infection measured on day 30; format: functional, organism-based; set-up: dose 30 mg/kg
[23] = biological target: T1, Chloroquine resistance transporter (Plasmodium falciparum) (UniProt Q9N623); assay: Inhibition of chloroquine-resistant Plasmodium falciparum Dd2 CRT expressed in Xenopus laevis oocyte assessed as inhibition of [3H]chloroquine uptake at 100 uM measured from 1 to 2 hrs
T1 sequence (whole entry): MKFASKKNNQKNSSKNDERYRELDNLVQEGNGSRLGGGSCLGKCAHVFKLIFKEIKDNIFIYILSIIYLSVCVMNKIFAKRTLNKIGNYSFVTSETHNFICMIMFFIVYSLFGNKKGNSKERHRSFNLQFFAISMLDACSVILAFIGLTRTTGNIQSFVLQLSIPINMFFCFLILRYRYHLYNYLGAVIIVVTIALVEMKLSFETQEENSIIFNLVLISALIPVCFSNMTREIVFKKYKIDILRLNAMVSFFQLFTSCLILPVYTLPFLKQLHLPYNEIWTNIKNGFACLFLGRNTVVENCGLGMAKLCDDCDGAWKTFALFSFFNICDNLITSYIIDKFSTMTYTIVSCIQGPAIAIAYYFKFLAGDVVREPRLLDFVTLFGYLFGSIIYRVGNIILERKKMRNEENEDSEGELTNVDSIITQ

[24] = Cytotoxicity against mouse NIH3T3 cells after 24 hrs by neutral red dye uptake assay; format: cell-based; settings: read-out: TC50
[25] = Cytotoxicity against human HepG2 cells after 24 hrs by neutral red dye uptake assay; format: cell-based; settings: read-out: TC50
Salmonella typhimurium [26] = assay: Mutagenicity against Salmonella typhimurium TA98 assessed as revertants at 8 uM incubated for 90 mins followed by drug washout measured after 2 days relative to positive control; format: toxicity, organism-based; settings: salmonella enterica subsp. enterica serovar typhimurium, 1.5 h
Salmonella typhimurium [27] = assay: Mutagenicity against Salmonella typhimurium TA98 assessed as revertants at 17 uM incubated for 90 mins followed by drug washout measured after 2 days relative to positive control; format: toxicity, organism-based; settings: salmonella enterica subsp. enterica serovar typhimurium
Salmonella typhimurium [28] = assay: Mutagenicity against Salmonella typhimurium TA98 assessed as revertants at 33 uM incubated for 90 mins followed by drug washout measured after 2 days relative to positive control; format: toxicity, organism-based; settings: salmonella enterica subsp. enterica serovar typhimurium, 1.5 h
Salmonella typhimurium [29] = assay: Mutagenicity against Salmonella typhimurium TA98 assessed as revertants at 66 uM incubated for 90 mins followed by drug washout measured after 2 days relative to positive control; format: toxicity, organism-based; settings: salmonella enterica subsp. enterica serovar typhimurium
Salmonella typhimurium [30] = assay: Mutagenicity against Salmonella typhimurium TA100 assessed as revertants at 2 uM incubated for 90 mins followed by drug washout measured after 2 days relative to positive control; format: toxicity, organism-based; settings: salmonella enterica subsp. enterica serovar typhimurium
Salmonella typhimurium [31] = assay: Mutagenicity against Salmonella typhimurium TA100 assessed as revertants at 4 uM incubated for 90 mins followed by drug washout measured after 2 days relative to positive control; format: toxicity, organism-based; settings: salmonella enterica subsp. enterica serovar typhimurium, 1.5 h
Salmonella typhimurium [32] = assay: Mutagenicity against Salmonella typhimurium TA100 assessed as revertants at 9 uM incubated for 90 mins followed by drug washout measured after 2 days relative to positive control; format: toxicity, organism-based; settings: salmonella enterica subsp. enterica serovar typhimurium, 1.5 h
Salmonella typhimurium [33] = assay: Mutagenicity against Salmonella typhimurium TA100 assessed as revertants at 17 uM incubated for 90 mins followed by drug washout measured after 2 days relative to positive control; format: toxicity, organism-based; settings: salmonella enterica subsp. enterica serovar typhimurium
Salmonella typhimurium [34] = assay: Mutagenicity against Salmonella typhimurium TA100 assessed as revertants at 33 uM incubated for 90 mins followed by drug washout measured after 2 days relative to positive control; format: toxicity, organism-based; settings: salmonella enterica subsp. enterica serovar typhimurium, 1.5 h
Salmonella typhimurium [35] = assay: Mutagenicity against Salmonella typhimurium TA100 assessed as revertants at 66 uM incubated for 90 mins followed by drug washout measured after 2 days relative to positive control; format: toxicity, organism-based; settings: salmonella enterica subsp. enterica serovar typhimurium
Salmonella typhimurium [36] = assay: Mutagenicity against Salmonella typhimurium TA98 assessed as revertants at 2 uM incubated for 90 mins followed by drug washout measured after 2 days relative to positive control; format: toxicity, organism-based; settings: salmonella enterica subsp. enterica serovar typhimurium, 1.5 h
Salmonella typhimurium [37] = assay: Mutagenicity against Salmonella typhimurium TA98 assessed as revertants at 4 uM incubated for 90 mins followed by drug washout measured after 2 days relative to positive control; format: toxicity, organism-based; settings: salmonella enterica subsp. enterica serovar typhimurium

Clc1ccc2c(NC(c3ccccc3)(c3ccc(CN4CCCC4)c(Cl)c3)c3ccc(CN4CCCC4)c(Cl)c3)ccnc2c1
Activity (Salmonella typhimurium [1]): 5% | Activity (Salmonella typhimurium [2]): 3% | Activity (Salmonella typhimurium [3]): 0% | Activity (Salmonella typhimurium [4]): 1% | Activity (Salmonella typhimurium [5]): 1% | Activity (Salmonella typhimurium [6]): 5% | Activity (Salmonella typhimurium [7]): 6% | Activity (Salmonella typhimurium [8]): 4% | Activity (Salmonella typhimurium [9]): 4% | Activity (Salmonella typhimurium [10]): 0% | Activity (Salmonella typhimurium [11]): 4% | Activity (Salmonella typhimurium [12]): 5% | IC50 (Plasmodium falciparum [13]): 26 nM | IC50 (Plasmodium falciparum [14]): 52 nM | IC50 (Plasmodium falciparum [15]): 9.5 nM | IC50 (Plasmodium falciparum [16]): 8.4 nM | Activity (Plasmodium berghei [17]): 99.3% | Activity (Plasmodium berghei [18]): 99.4% | MSD (Plasmodium berghei [19]): 21.3 days | MSD (Plasmodium berghei [20]): 7 days | Activity (Plasmodium berghei [21]): inactive | Activity (Plasmodium berghei [22]): inactive | inhibition [23]: 72% | CC50 at 24 h [24]: 15000 nM | CC50 at 24 h [25]: 6100 nM

Fc1cc(C(Nc2ccnc3cc(C(F)(F)F)ccc23)c2ccc(Cl)cc2)ccc1CN1CCCC1 (racemic)
Activity (Salmonella typhimurium [26]): 1% | Activity (Salmonella typhimurium [27]): 4% | Activity (Salmonella typhimurium [28]): 4% | Activity (Salmonella typhimurium [29]): 8% | Activity (Salmonella typhimurium [30]): 4% | Activity (Salmonella typhimurium [31]): 3% | Activity (Salmonella typhimurium [32]): 1% | Activity (Salmonella typhimurium [33]): 4% | Activity (Salmonella typhimurium [34]): 8% | Activity (Salmonella typhimurium [35]): 1% | IC50 (Plasmodium falciparum [13]): 51 nM | IC50 (Plasmodium falciparum [14]): 76 nM | IC50 (Plasmodium falciparum [15]): 20 nM | IC50 (Plasmodium falciparum [16]): 33 nM | CC50 at 24 h [24]: 34000 nM | CC50 at 24 h [25]: 19000 nM | Activity (Salmonella typhimurium [36]): 1% | Activity (Salmonella typhimurium [37]): 1%
